{"source": "ChEMBL document CHEMBL3525908", "about": "“Chronic doxorubicin cardiotoxicity modulates cardiac cytochrome P450-mediated arachidonic acid metabolism in rats” (Drug Metab Dispos, 2012)", "key": {"Rattus norvegicus [1]": {"system": "Rattus norvegicus", "assay": "Cardiotoxicity in Sprague-Dawley rat assessed as increase in sEH activity in heart microsomes administered as cumulative dose of 15 mg/kg, ip divided into 6 injections for 2 weeks followed by compound washout period of 14 days by RT-PCR analysis relative to control", "type": "toxicity, organism-based", "set-up": "dose 15 mg/kg, route intraperitoneal", "details": "336 h; call rule not given here"}, "CYP1A2": {"system": "CYP1A2", "assay": "Toxicity in Sprague-Dawley rat assessed as induction of CYP1A2 gene expression in liver administered as cumulative dose of 15 mg/kg, ip divided into 6 injections for 2 weeks followed by compound washout period of 14 days by RT-PCR analysis relative to control", "type": "organism-based", "set-up": "dose 15 mg/kg, route intraperitoneal"}, "CYP4F1": {"system": "CYP4F1", "assay": "Cardiotoxicity in Sprague-Dawley rat assessed as increase in CYP4F1 gene expression level administered as cumulative dose of 15 mg/kg, ip divided into 6 injections for 2 weeks followed by compound washout period of 14 days by RT-PCR analysis relative to control", "type": "toxicity, organism-based", "set-up": "dose 15 mg/kg, route intraperitoneal", "details": "heart"}, "Rattus norvegicus [2]": {"system": "Rattus norvegicus", "assay": "Cardiotoxicity in Sprague-Dawley rat assessed as increase in CYP1B1 gene expression level administered as cumulative dose of 15 mg/kg, ip divided into 6 injections for 2 weeks followed by compound washout period of 14 days by RT-PCR analysis relative to control", "type": "toxicity, organism-based", "set-up": "dose 15 mg/kg, route intraperitoneal", "details": "in vivo, 336 h"}, "CYP2J3": {"system": "CYP2J3", "assay": "Toxicity in Sprague-Dawley rat assessed as induction of CYP2J3 gene expression in kidney administered as cumulative dose of 15 mg/kg, ip divided into 6 injections for 2 weeks followed by compound washout period of 14 days by RT-PCR analysis relative to control", "type": "organism-based", "set-up": "dose 15 mg/kg, route intraperitoneal"}, "Rattus norvegicus [3]": {"system": "Rattus norvegicus", "assay": "Toxicity in Sprague-Dawley rat assessed as inhibition of CYP2C11 gene expression in liver administered as cumulative dose of 15 mg/kg, ip divided into 6 injections for 2 weeks followed by compound washout period of 14 days by RT-PCR analysis relative to control", "type": "organism-based", "set-up": "dose 15 mg/kg, route intraperitoneal", "details": "in vivo, 336 h"}, "H9c2 [4]": {"system": "H9c2", "assay": "Cytotoxicity against rat H9c2 cells assessed as reduction in BNP mRNA expression at 1 uM after 6 hrs", "type": "cell-based", "details": "h9c2, 6 h"}, "Rattus norvegicus [5]": {"system": "Rattus norvegicus", "assay": "Toxicity in Sprague-Dawley rat assessed as CYP1A2 gene expression in kidney administered as cumulative dose of 15 mg/kg, ip divided into 6 injections for 2 weeks followed by compound washout period of 14 days by RT-PCR analysis relative to control", "type": "organism-based", "set-up": "dose 15 mg/kg, route intraperitoneal", "details": "in vivo, 336 h"}, "CYP1A1": {"system": "CYP1A1", "assay": "Toxicity in Sprague-Dawley rat assessed as induction of CYP1A1 gene expression in liver administered as cumulative dose of 15 mg/kg, ip divided into 6 injections for 2 weeks followed by compound washout period of 14 days by RT-PCR analysis relative to control", "type": "organism-based", "set-up": "dose 15 mg/kg, route intraperitoneal"}, "CYP2E1": {"system": "CYP2E1", "assay": "Cardiotoxicity in Sprague-Dawley rat assessed as increase in CYP2E1 gene expression level administered as cumulative dose of 15 mg/kg, ip divided into 6 injections for 2 weeks followed by compound washout period of 14 days by RT-PCR analysis relative to control", "type": "toxicity, organism-based", "set-up": "dose 15 mg/kg, route intraperitoneal", "details": "heart"}, "CYP1B1 [6]": {"system": "CYP1B1", "assay": "Toxicity in Sprague-Dawley rat assessed as induction of CYP1B1 gene expression in kidney administered as cumulative dose of 15 mg/kg, ip divided into 6 injections for 2 weeks followed by compound washout period of 14 days by RT-PCR analysis relative to control", "type": "organism-based", "set-up": "dose 15 mg/kg, route intraperitoneal"}, "Rattus norvegicus [7]": {"system": "Rattus norvegicus", "assay": "Cardiotoxicity in Sprague-Dawley rat assessed as increase in CYP1A1 gene expression level administered as cumulative dose of 15 mg/kg, ip divided into 6 injections for 2 weeks followed by compound washout period of 14 days by RT-PCR analysis relative to control", "type": "toxicity, organism-based", "set-up": "dose 15 mg/kg, route intraperitoneal", "details": "in vivo, 336 h"}, "CYP4F5": {"system": "CYP4F5", "assay": "Toxicity in Sprague-Dawley rat assessed as induction of CYP4F5 gene expression in liver administered as cumulative dose of 15 mg/kg, ip divided into 6 injections for 2 weeks followed by compound washout period of 14 days by RT-PCR analysis relative to control", "type": "organism-based", "set-up": "dose 15 mg/kg, route intraperitoneal"}, "CYP1B1 [8]": {"system": "CYP1B1", "assay": "Toxicity in Sprague-Dawley rat assessed as induction of CYP1B1 gene expression in liver administered as cumulative dose of 15 mg/kg, ip divided into 6 injections for 2 weeks followed by compound washout period of 14 days by RT-PCR analysis relative to control", "type": "organism-based", "set-up": "dose 15 mg/kg, route intraperitoneal"}, "Rattus norvegicus [9]": {"system": "Rattus norvegicus", "assay": "Toxicity in Sprague-Dawley rat assessed as induction of IL-6 gene expression in liver administered as cumulative dose of 15 mg/kg, ip divided into 6 injections for 2 weeks followed by compound washout period of 14 days by RT-PCR analysis relative to control", "type": "organism-based", "set-up": "dose 15 mg/kg, route intraperitoneal", "details": "336 h"}, "Rattus norvegicus [10]": {"system": "Rattus norvegicus", "assay": "Cardiotoxicity in Sprague-Dawley rat assessed as increase in beta-MHC gene expression level administered as cumulative dose of 15 mg/kg, ip divided into 6 injections for 2 weeks followed by compound washout period of 14 days by RT-PCR analysis relative to control", "type": "toxicity, organism-based", "set-up": "dose 15 mg/kg, route intraperitoneal", "details": "336 h"}, "CYP450": {"system": "CYP450", "assay": "Induction of CYP450-mediated arachidonic acid metabolism in Sprague-Dawley rat heart microsomes assessed as 11,12-DHET formation administered as cumulative dose of 15 mg/kg, ip divided into 6 injections for 2 weeks followed by compound washout period of 14 days by LC-ESI-MS analysis relative to control", "type": "ADME, organism-based", "set-up": "dose 15 mg/kg, route intraperitoneal", "details": "probe arachidonic acid"}, "Rattus norvegicus [11]": {"system": "Rattus norvegicus", "assay": "Toxicity in Sprague-Dawley rat assessed as CYP2E1 gene expression in kidney administered as cumulative dose of 15 mg/kg, ip divided into 6 injections for 2 weeks followed by compound washout period of 14 days by RT-PCR analysis relative to control", "type": "organism-based", "set-up": "dose 15 mg/kg, route intraperitoneal", "details": "in vivo, 336 h"}, "Rattus norvegicus [12]": {"system": "Rattus norvegicus", "assay": "Toxicity in Sprague-Dawley rat assessed as inhibition of CYP2B2 gene expression in kidney administered as cumulative dose of 15 mg/kg, ip divided into 6 injections for 2 weeks followed by compound washout period of 14 days by RT-PCR analysis relative to control", "type": "organism-based", "set-up": "dose 15 mg/kg, route intraperitoneal", "details": "in vivo, 336 h"}, "Rattus norvegicus [13]": {"system": "Rattus norvegicus", "assay": "Toxicity in Sprague-Dawley rat assessed as CYP4A1 gene expression in kidney administered as cumulative dose of 15 mg/kg, ip divided into 6 injections for 2 weeks followed by compound washout period of 14 days by RT-PCR analysis relative to control", "type": "organism-based", "set-up": "dose 15 mg/kg, route intraperitoneal", "details": "in vivo, 336 h"}, "Rattus norvegicus [14]": {"system": "Rattus norvegicus", "assay": "Induction of CYP450-mediated arachidonic acid metabolism in Sprague-Dawley rat heart microsomes assessed as 5,6-EET formation administered as cumulative dose of 15 mg/kg, ip divided into 6 injections for 2 weeks followed by compound washout period of 14 days by LC-ESI-MS analysis relative to control", "type": "ADME, organism-based", "set-up": "dose 15 mg/kg, route intraperitoneal", "details": "336 h"}, "Rattus norvegicus [15]": {"system": "Rattus norvegicus", "assay": "Toxicity in Sprague-Dawley rat assessed as sEH gene expression in liver administered as cumulative dose of 15 mg/kg, ip divided into 6 injections for 2 weeks followed by compound washout period of 14 days by RT-PCR analysis", "type": "organism-based", "set-up": "dose 15 mg/kg, route intraperitoneal", "details": "in vivo, 336 h"}, "Rattus norvegicus [16]": {"system": "Rattus norvegicus", "assay": "Toxicity in Sprague-Dawley rat assessed as CYP4A1 gene expression in liver administered as cumulative dose of 15 mg/kg, ip divided into 6 injections for 2 weeks followed by compound washout period of 14 days by RT-PCR analysis relative to control", "type": "organism-based", "set-up": "dose 15 mg/kg, route intraperitoneal", "details": "in vivo, 336 h"}, "Rattus norvegicus [17]": {"system": "Rattus norvegicus", "assay": "Toxicity in Sprague-Dawley rat assessed as CYP4A3 gene expression in kidney administered as cumulative dose of 15 mg/kg, ip divided into 6 injections for 2 weeks followed by compound washout period of 14 days by RT-PCR analysis relative to control", "type": "organism-based", "set-up": "dose 15 mg/kg, route intraperitoneal", "details": "in vivo, 336 h"}, "H9c2 [18]": {"system": "H9c2", "assay": "Cytotoxicity against rat H9c2 cells assessed as reduction in ANP mRNA expression at 1 uM after 6 hrs", "type": "cell-based", "details": "h9c2, 6 h"}, "Rattus norvegicus [19]": {"system": "Rattus norvegicus", "assay": "Cardiotoxicity in Sprague-Dawley rat assessed as increase in CYP2B1 gene expression level administered as cumulative dose of 15 mg/kg, ip divided into 6 injections for 2 weeks followed by compound washout period of 14 days by RT-PCR analysis relative to control", "type": "toxicity, organism-based", "set-up": "dose 15 mg/kg, route intraperitoneal", "details": "in vivo, 336 h"}}, "data": [{"smiles": "COc1cccc2c1C(=O)c1c(O)c3c(c(O)c1C2=O)C[C@@](O)(C(=O)CO)C[C@@H]3O[C@H]1C[C@H](N)[C@H](O)[C@H](C)O1", "note": "[DOXORUBICIN]", "values": [{"measurement": "Ratio", "setting": "Rattus norvegicus [1]", "result": 1.6}, {"measurement": "fold induction at 336 h", "setting": "CYP1A2", "result": 1.9}, {"measurement": "fold induction at 336 h", "setting": "CYP4F1", "result": 1.6}, {"measurement": "Activity", "setting": "Rattus norvegicus [2]", "result": "Non-toxic"}, {"measurement": "fold induction at 336 h", "setting": "CYP2J3", "result": 1.6}, {"measurement": "Ratio", "setting": "Rattus norvegicus [3]", "result": 0.7}, {"measurement": "Activity", "setting": "H9c2 [4]", "result": "Non-toxic"}, {"measurement": "Activity", "setting": "Rattus norvegicus [5]", "result": "Non-toxic"}, {"measurement": "fold induction at 336 h", "setting": "CYP1A1", "result": 2.8}, {"measurement": "fold induction at 336 h", "setting": "CYP2E1", "result": 1.8}, {"measurement": "fold induction at 336 h", "setting": "CYP1B1 [6]", "result": 1.8}, {"measurement": "Activity", "setting": "Rattus norvegicus [7]", "result": "Non-toxic"}, {"measurement": "fold induction at 336 h", "setting": "CYP4F5", "result": 1.8}, {"measurement": "fold induction at 336 h", "setting": "CYP1B1 [8]", "result": 2.5}, {"measurement": "fold induction at 15 mg/kg", "setting": "Rattus norvegicus [9]", "result": 4.5}, {"measurement": "fold induction at 15 mg/kg", "setting": "Rattus norvegicus [10]", "result": 2.7}, {"measurement": "fold induction at 336 h", "setting": "CYP450", "result": 1.9}, {"measurement": "Activity", "setting": "Rattus norvegicus [11]", "result": "Non-toxic"}, {"measurement": "Ratio", "setting": "Rattus norvegicus [12]", "result": 0.74}, {"measurement": "Activity", "setting": "Rattus norvegicus [13]", "result": "Non-toxic"}, {"measurement": "Activity", "setting": "Rattus norvegicus [14]", "result": "Active"}, {"measurement": "Activity", "setting": "Rattus norvegicus [15]", "result": "Non-toxic"}, {"measurement": "Activity", "setting": "Rattus norvegicus [16]", "result": "Non-toxic"}, {"measurement": "Activity", "setting": "Rattus norvegicus [17]", "result": "Non-toxic"}, {"measurement": "Activity", "setting": "H9c2 [18]", "result": "Non-toxic"}, {"measurement": "Activity", "setting": "Rattus norvegicus [19]", "result": "Non-toxic"}]}]}
